According to ChEMBL document CHEMBL4311955, “HIV-1 Protease Inhibitors Incorporating Stereochemically Defined P2' Ligands To Optimize Hydrogen Bonding in the Substrate Envelope” (J Med Chem, 2019):

Legend:
Protease [1] = biological target: Protease (Human immunodeficiency virus 1, UniProt Q9YQ12, A71V/I50V); assay: Inhibition of HIV1 NL4-3 protease I50V/A71V mutant expressed in Escherichia coli TAP-106 cells using EDANS/DABCYL-labelled 10-amino acid containing natural MA/CA cleavage site as substrate preincubated for 1 hr followed by substrate addition and measured for 60 mins by FRET assay
Protease [2] = biological target: Protease (Human immunodeficiency virus 1, UniProt Q9YQ12, I84V); assay: Inhibition of HIV1 NL4-3 protease I84V mutant expressed in Escherichia coli TAP-106 cells using EDANS/DABCYL-labelled 10-amino acid containing natural MA/CA cleavage site as substrate preincubated for 1 hr followed by substrate addition and measured for 60 mins by FRET assay
[3] = tested on: Human immunodeficiency virus 1; assay: Antiviral activity against wild-type HIV1 NL4-3 infected in human TZM-bl cells preincubated for 18 hrs followed by viral infection and measured after 48 hrs by luciferase reporter gene assay; type: functional, organism-based; settings: Human immunodeficiency virus 1, NL4-3, TZM-bl
[4] = Selectivity ratio of EC50 for antiviral activity against multidrug-resistant HIV1 NL4-3 SLK19 infected in human TZM-bl cells to EC50 for antiviral activity against wild-type HIV1 NL4-3 infected in human TZM-bl cells; type: functional
[5] = Selectivity ratio of EC50 for antiviral activity against multidrug-resistant HIV1 NL4-3 VSL20 infected in human TZM-bl cells to EC50 for antiviral activity against wild-type HIV1 NL4-3 infected in human TZM-bl cells; type: functional
[6] = tested on: Human immunodeficiency virus 1; assay: Antiviral activity against multidrug-resistant HIV1 NL4-3 SLK19 infected in human TZM-bl cells preincubated for 18 hrs followed by viral infection and measured after 48 hrs by luciferase reporter gene assay; type: functional, organism-based; settings: Human immunodeficiency virus 1, NL4-3 SLK19, TZM-bl
[7] = tested on: Human immunodeficiency virus 1; assay: Antiviral activity against multidrug-resistant HIV1 NL4-3 VSL20 infected in human TZM-bl cells preincubated for 18 hrs followed by viral infection and measured after 48 hrs by luciferase reporter gene assay; type: functional, organism-based; settings: Human immunodeficiency virus 1, NL4-3 VSL20, TZM-bl
[8] = Selectivity ratio of EC50 for antiviral activity against multidrug-resistant HIV1 NL4-3 KY24 infected in human TZM-bl cells to EC50 for antiviral activity against wild-type HIV1 NL4-3 infected in human TZM-bl cells; type: functional
[9] = tested on: Human immunodeficiency virus 1; assay: Antiviral activity against multidrug-resistant HIV1 NL4-3 KY24 infected in human TZM-bl cells preincubated for 18 hrs followed by viral infection and measured after 48 hrs by luciferase reporter gene assay; type: functional, organism-based; settings: Human immunodeficiency virus 1, NL4-3 KY24, TZM-bl
[10] = tested on: Human immunodeficiency virus 1; assay: Potency index, ratio of darunavir EC50 to test compound EC50 for antiviral activity against multidrug-resistant HIV1 NL4-3 KY24 infected in human TZM-bl cells; type: functional

Sequence of Protease (Human immunodeficiency virus 1, UniProt Q9YQ12, A71V/I50V) (Q9YQ12 entry or part of it A71V/I50V): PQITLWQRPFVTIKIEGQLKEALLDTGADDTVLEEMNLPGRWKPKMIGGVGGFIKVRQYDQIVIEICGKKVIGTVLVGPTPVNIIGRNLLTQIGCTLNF
Sequence of Protease (Human immunodeficiency virus 1, UniProt Q9YQ12, I84V) (Q9YQ12 entry or part of it I84V): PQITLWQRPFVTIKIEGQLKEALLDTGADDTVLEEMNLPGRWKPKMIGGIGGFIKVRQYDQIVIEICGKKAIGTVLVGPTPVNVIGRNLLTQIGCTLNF

| SMILES | Ki (Protease [1]) | Ki (Protease [2]) | EC50 [3] | Ratio EC50 [4] | Ratio EC50 [5] | EC50 [6] | EC50 [7] | Ratio EC50 [8] | EC50 [9] | Ratio EC50 [10] |
| --- | --- | --- | --- | --- | --- | --- | --- | --- | --- | --- |
| CC(C)CN(C[C@@H](O)[C@H](Cc1ccccc1)NC(=O)O[C@H]1CO[C@H]2OCC[C@H]21)S(=O)(=O)c1ccc([C@@H](O)CO)cc1 | 0.09 nM | 0.098 nM | 176 nM |  |  |  |  |  |  |  |
| CC(C)CN(C[C@@H](O)[C@H](Cc1ccccc1)NC(=O)O[C@H]1CO[C@H]2OCC[C@H]21)S(=O)(=O)c1ccc([C@H](O)CO)cc1 |  | 0.283 nM | 189 nM |  |  |  |  |  |  |  |
| CC[C@H](C)CN(C[C@@H](O)[C@H](Cc1ccccc1)NC(=O)O[C@H]1CO[C@H]2OCC[C@H]21)S(=O)(=O)c1ccc([C@H](C)O)cc1 | 0.093 nM | 0.111 nM | 4.6 nM | 11 | 61 | 49 nM | 281 nM | 107 | 490 nM |  |
| CC[C@H](C)CN(C[C@@H](O)[C@H](Cc1ccccc1)NC(=O)O[C@H]1CO[C@H]2OCC[C@H]21)S(=O)(=O)c1ccc([C@H](O)CO)cc1 |  | 0.504 nM | 92 nM |  |  |  |  |  |  |  |
| CCC(CC)CN(C[C@@H](O)[C@H](Cc1ccccc1)NC(=O)O[C@H]1CO[C@H]2OCC[C@H]21)S(=O)(=O)c1ccc([C@H](C)O)cc1 |  |  | 4.4 nM |  |  | 26 nM | 112 nM |  | 196 nM |  |
| CCC(CC)CN(C[C@@H](O)[C@H](Cc1ccccc1)NC(=O)O[C@H]1CO[C@H]2OCC[C@H]21)S(=O)(=O)c1ccc([C@@H](O)CO)cc1 | 0.074 nM | 0.057 nM | 40 nM | 3 | 3 | 116 nM | 100 nM | 13 | 507 nM |  |
| CC[C@H](C)CN(C[C@@H](O)[C@H](Cc1ccccc1)NC(=O)O[C@H]1CO[C@H]2OCC[C@H]21)S(=O)(=O)c1ccc(CO)cc1 | 0.08 nM | 0.01 nM | 5.7 nM | 9 | 54 | 52 nM | 310 nM | 191 | 1090 nM |  |
| CCC(CC)CN(C[C@@H](O)[C@H](Cc1ccccc1)NC(=O)O[C@H]1CO[C@H]2OCC[C@H]21)S(=O)(=O)c1ccc([C@H](O)CO)cc1 | 0.22 nM | 0.134 nM | 41 nM | 4 | 10 | 151 nM | 417 nM | 28 | 1150 nM |  |
| CC(C)CN(C[C@@H](O)[C@H](Cc1ccccc1)NC(=O)O[C@H]1CO[C@H]2OCC[C@H]21)S(=O)(=O)c1ccc([C@@H](C)O)cc1 |  |  | 7.5 nM |  |  | 100 nM | 148 nM |  | 360 nM |  |
| CCC(CC)CN(C[C@@H](O)[C@H](Cc1ccccc1)NC(=O)O[C@H]1CO[C@H]2OCC[C@H]21)S(=O)(=O)c1ccc(CO)cc1 | 0.055 nM | 0.005 nM | 4.2 nM | 9 | 101 | 36 nM | 426 nM | 118 | 495 nM | 2 |
| CC(C)CN(C[C@@H](O)[C@H](Cc1ccccc1)NC(=O)O[C@H]1CO[C@H]2OCC[C@H]21)S(=O)(=O)c1ccc([C@H](C)O)cc1 |  |  | 4.7 nM |  |  | 31 nM | 117 nM |  | 352 nM |  |
| CC[C@H](C)CN(C[C@@H](O)[C@H](Cc1ccccc1)NC(=O)O[C@H]1CO[C@H]2OCC[C@H]21)S(=O)(=O)c1ccc([C@@H](C)O)cc1 | 0.132 nM | 0.095 nM | 4.2 nM | 22 | 69 | 91 nM | 291 nM | 81 | 342 nM |  |
| CC[C@H](C)CN(C[C@@H](O)[C@H](Cc1ccccc1)NC(=O)O[C@H]1CO[C@H]2OCC[C@H]21)S(=O)(=O)c1ccc([C@@H](O)CO)cc1 |  | 0.216 nM | 80 nM |  |  |  |  |  |  |  |
| CCC(CC)CN(C[C@@H](O)[C@H](Cc1ccccc1)NC(=O)O[C@H]1CO[C@H]2OCC[C@H]21)S(=O)(=O)c1ccc([C@@H](C)O)cc1 |  |  | 5.1 nM |  |  | 32 nM | 420 nM |  | 345 nM |  |
